From patent publication US10189782B2, “Derivatives of indole for the treatment of cancer, viral infections and lung diseases” (BIOKINESIS, priority 2012, dated 2019)
Where two headings read alike, the source gives them in different places.

Assays:
[1] = test system: human colon carcinoma HCT-116 xenografts; test: Anti-tumor activity in nude mice bearing subcutaneous human colon carcinoma HCT-116 xenografts; type: in vivo; conditions: for Antitumor activity (tumor volume, FIG. 3): HCT-116 xenograft bearing nude mice, cisplatin 4 mg/kg, compound 38 37.5 mg/kg; for Antitumor activity (tumor volume, FIG. 3) / MBWC D 0-D 4 (mean body weight change) / MBWC D 0-D 7 (mean body weight change) / MBWC D 0-D 10 (mean body weight change) / MBWC D 0-D 14 (mean body weight change) / MBWC D 0-D 17 (mean body weight change) / MBWC D 0-D 21 (mean body weight change) / MBWC D 0-D 24 (mean body weight change) / MBWC D 0-D 28 (mean body weight change): i.p.; for MBWC D 0-D 4 (mean body weight change) / MBWC D 0-D 7 (mean body weight change) / MBWC D 0-D 10 (mean body weight change) / MBWC D 0-D 14 (mean body weight change) / MBWC D 0-D 17 (mean body weight change) / MBWC D 0-D 21 (mean body weight change) / MBWC D 0-D 24 (mean body weight change) / MBWC D 0-D 28 (mean body weight change): HCT-116 xenograft nude mice, Cisplatin 4 mg/kg, Cpd 38 37.5 mg/kg, starting MBW 21 g
Experimental: The effects of one compound of the invention were studied on the tumor growth of human cancer cells in nude mice. […] The induction in nude mice was realized by subcutaneous injection in the right flank of each mouse of 10×10^6 HCT-116 cells in 200 μl serum-free medium. When the tumor volume reached 130 mm^3, mice were randomized in to 3 groups (10 mice/group).
Mice of group 2 were treated by intraperitoneal injection of cisplatin (diluted in NaCl 0.9%) at 4 mg/kg according to the treatment schedule 1Q3Dx3.
The body weight and tumor volume of mice were recorded twice a week until the end of the experiment.

[2] = biological target: T1, Human recombinant MKlp2 motor domain1-519, His tagged (Homo sapiens, UniProt O95235); test: Microtubule stimulated ATPase activity of the MKlp2 motor domain (Kinesin ELIPA Assay Kit); type: biochemical; conditions: read-out: MKIp2 IC50
T1 construct: Human recombinant MKlp2 motor domain1-519, His tagged; His; purchased Cytoskeleton MP05
T1 sequence (O95235 1-519): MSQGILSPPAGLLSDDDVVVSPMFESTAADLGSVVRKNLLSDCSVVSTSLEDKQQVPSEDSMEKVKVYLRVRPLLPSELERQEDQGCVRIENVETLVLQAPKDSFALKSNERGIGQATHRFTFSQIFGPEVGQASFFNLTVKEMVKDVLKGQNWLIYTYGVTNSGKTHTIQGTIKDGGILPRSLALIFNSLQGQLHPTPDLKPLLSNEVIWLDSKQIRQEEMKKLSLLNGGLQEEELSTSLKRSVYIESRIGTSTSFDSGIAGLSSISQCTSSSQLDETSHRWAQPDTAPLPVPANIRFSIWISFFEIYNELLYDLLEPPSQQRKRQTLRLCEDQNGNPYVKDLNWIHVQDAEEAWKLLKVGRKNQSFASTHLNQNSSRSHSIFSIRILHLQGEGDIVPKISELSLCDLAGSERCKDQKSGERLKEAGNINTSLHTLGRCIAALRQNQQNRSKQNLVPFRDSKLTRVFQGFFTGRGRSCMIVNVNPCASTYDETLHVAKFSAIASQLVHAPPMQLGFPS
In short: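 Microtubule-stimulated ATPase at 22° C, with free phosphate followed in real time by MESG/PNP coupled absorbance at 360 nm. Motor mix in Pipes-NaOH pH 7.0, MgCl2, 30 μM Tx with porcine brain microtubules; reaction started with 5 mM ATP stock at 20% of volume. Kinetic read: 21 readings, 30 s apart.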

K562 cells = test: Cytotoxicity on human cancer cells (WST-1), K562; type: cell-based; conditions: WST-1 on D4, read-out: K562 IC50
Experimental: (§1) Evaluation of Cytotoxicity Effects on Human Cancer Cells
(§2) The effects of the compounds of the invention on the viability of human cancer cells were studied on various human cancer cell lines of differing tissue origins (A549, NCI-H460: lung cancer; MDA-MB-231: breast cancer; HCT-116, HT-29: colon cancer; MIA-PaCa-2: pancreatic cancer; K562: leukaemia). All cell lines were obtained from ATCC or ECACC. Cells were cultured in the culture media described below, under a 37° C., 5% CO2 humidified atmosphere, according to a standard operating procedure.
(§3) On D0, the cells were plated in 90 μl in 96 wells plates at densities ranging from 500 to 5,000 cells per well.
(§4) Following addition of the test substance the cells were protected from light. The solvents (DMSO and specific control solvent were added at the maximal concentration: 10 μl/well (3 wells/condition)).
(§5) On D4, the Cell Proliferation Reagent WST-1 was added to each well (10 μl/well), according to a standard operating procedure. The cells were then incubated for 30 min to 4 h at 37° C.-5% CO2. After these incubations, the 96-well plates were shaken thoroughly for 1 min with Multiskan® EX apparatus (Thermo Labsystems, France). The absorbence was measured at 450 nm, the reference wavelength being 620 nm. The analysis of the results was performed with the Ascent software 2.6 (Thermo Labsystems, France), Microsoft Excel 2003 and GraphPad Prism 4.03 softwares to give the concentration of the compounds that induces the death of 50% of the cells (IC50).

HCT-116 = test: Cytotoxicity on human cancer cells (WST-1), HCT-116; type: cell-based; conditions: HCT-116 colon cancer cells, WST-1 on D4
Experimental: as §1, §2
HCT-116: Mc Coy's 5a+10% FBS+0.5 mM Ultraglutamine
as §3, §4
(§6) On D4, the Cell Proliferation Reagent WST-1 was added to each well (10 μl/well), according to a standard operating procedure. The cells were then incubated for 30 min to 4 h at 37° C.-5% CO2. After these incubations, the 96-well plates were shaken thoroughly for 1 min with Multiskan® EX apparatus (Thermo Labsystems, France). The absorbence was measured at 450 nm, the reference wavelength being 620 nm. […]

MDA-MB-231 = test: Cytotoxicity on human cancer cells (WST-1), MDA-MB-231; type: cell-based; conditions: MDA-MB-231 breast cancer cells, WST-1 on D4
Experimental: as §1, §2, §3, §4, §5

MIA-PaCa-2 = test: Cytotoxicity on human cancer cells (WST-1), MIA-PaCa-2; type: cell-based; conditions: MIA-PaCa-2 pancreatic cancer cells, WST-1 on D4
Experimental: as §1, §2, §3, §4, §5

NCI-H460 = test: Cytotoxicity on human cancer cells (WST-1), NCI-H460; type: cell-based; conditions: NCI-H460 lung cancer cells, WST-1 on D4, read-out: IC50 (μM) NCIH460
Experimental: as §1, §2
NCI-H460: RPMI 1640+10% FBS+10 mM HEPES+1 mM Sodium pyruvate+2.5 g/l glucose
as §3, §4, §6

[3] = test system: human large lung carcinoma NCI-H460 xenografts; test: Anti-tumor activity in nude mice bearing subcutaneous human large cell lung carcinoma NCI-H460 xenografts; type: in vivo
Experimental: In-Vivo Evaluation of Anti-Tumor Activity of Compound 38 in Nude Mice Bearing Subcutaneous Human Large Cell Lung Carcinoma NCI-11460 Xenografts Protocol:
The effects of one compound of the invention were studied on the tumor growth of human cancer cells in nude mice. The human large lung carcinoma NCI-H460 cell line was obtained from ATCC. The induction in nude mice was realized by subcutaneous injection in the right flank of each mouse with 5×10^6 NCI-H460 cells in 200 μl serum-free medium. When the tumor volume reached 80 mm^3, mice were randomized in 2 groups (10 mice/group).
Mice of group 1 were treated by intraperitoneal injection of vehicle (solutol HS15 at 38% in NaCl 0.9%) according to the treatment schedule 1Q1Dx17.
Mice of group 2 were treated by intraperitoneal injection of compound 38 (diluted in solutol HS15 at 38% in NaCl 0.9%) at 37.5 mg/kg according to the treatment schedule 1Q1Dx17.
The tumor volume was recorded twice a week until the end of the experiment.

A549 = test: Cytotoxicity on human cancer cells (WST-1), A549; type: cell-based; conditions: A549 lung cancer cells, WST-1 on D4
Experimental: as §1, §2, §3, §4, §6

HT-29 = test: Cytotoxicity on human cancer cells (WST-1), HT-29; type: cell-based; conditions: HT-29 colon cancer cells, WST-1 on D4
Experimental: as §1, §2
HT-29: Mc Coy's 5a+10% FBS+0.5 mM Ultraglutamine
as §3, §4, §6

[4] = Stability studies in mouse plasma; type: in vitro ADME; conditions: for Remaining compound 63 (%) (mean ± SEM, n = 2): Mouse plasma, 2 μM, 37° C.
Experimental: (§7) Stability Studies in Mouse or Human Plasma The study was to evaluate the stability of the disclosed compounds after incubation in mouse or human plasma and to measure the metabolites formed. For the disclosed compound, a stock solution was prepared at 200 μM in DMSO. This solution was then 100-fold diluted in 1 ml of mouse or human plasma in order to obtain the required concentration of 2 μM. One aliquot of 100 μl was taken (TO) and the remaining solution was incubated at 37° C. in water bath for 60 min, 120 min and 240 min. At the end of each incubation time 100 μl of plasma was taken, 100 μl of acetonitrile containing 0.1% of formic acid were added to each aliquot in order to stop the enzymatic reaction and to precipitate the proteins. Samples was vortexed/mixed and centrifuged 5 min at 16434.6 g (=14000 rpm) (4° C.). After centrifugation, the clear supernatant (at least 150 μl) was transferred into 1.2 ml HPLC glass vials and sealed. Samples were placed into the refrigerated autosampler and 20 μl were injected into a HPLC-MS/MS. The results are expressed with the percentage of test substance remaining by comparing area under specific chromatographic peak of test samples after incubation with area under specific chromatographic peak at TO (Tables 7 and 8 and FIGS. 1 and 2).

[5] = Stability studies in human plasma; type: in vitro ADME; conditions: for Remaining compound 63 (%) (mean ± SEM, n = 2): Human plasma, 2 μM, 37° C.
Experimental: as §7

[6] = NCI-H460 xenograft nude mice, i.p. 37.5 mg/kg 1Q1Dx17, starting MBW 21 g

Row | Compound | Antitumor activity (tumor volume, FIG. 3) [1] | MBWC D 0-D 4 (mean body weight change) [1] | MBWC D 0-D 7 (mean body weight change) [1] | MBWC D 0-D 10 (mean body weight change) [1] | MBWC D 0-D 14 (mean body weight change) [1] | MBWC D 0-D 17 (mean body weight change) [1] | MBWC D 0-D 21 (mean body weight change) [1] | MBWC D 0-D 24 (mean body weight change) [1] | MBWC D 0-D 28 (mean body weight change) [1] | IC50 ([2]; Table 3, 22° C.) | IC50 (K562 cells; Table 4, K562 leukaemia cells) | IC50 (HCT-116) | IC50 (MDA-MB-231) | IC50 (MIA-PaCa-2) | IC50 (NCI-H460) | further results
1 | N.N.[Cl][Pt][Cl] [Cisplatin, cisplatin, reference compound] | Antitumor activity was observed | -1.1 g | -2.54 g | -3.33 g | -2.22 g | -1.26 g | -0.38 g | -0.02 g | -0.1 g |  |  |  |  |  |  | 
2 | COc1ccncc1/C=C(\C#N)c1c[nH]c2ccc(Br)cc12 [Example 5, (Z)-2-(5-bromo-1H-indol-3-yl)-3-(4-methoxypyridin-3-yl)acrylonitrile] |  |  |  |  |  |  |  |  |  | 50 nM | 800 nM | 0.7 µM | 1.7 µM | 0.7 µM | 0.9 µM | 
3 | COc1ccc(C#N)cc1/C=C(\C#N)c1c[nH]c2ccc(Br)cc12 [Example 38, (Z)-3-(2-(5-bromo-1H-indol-3-yl)-2-cyanovinyl)-4-methoxybenzonitrile] | Antitumor activity was observed | -1.04 g | -0.76 g | -1.08 g | -1.57 g | -1.58 g | -1.43 g | -1.83 g | -2.54 g | 200 nM | 30 nM | 0.06 µM | 0.07 µM | 0.04 µM | 0.04 µM | Tolerability of treatment ([1]; mouse, in vivo, ip, 37.5 mg/kg): well tolerated; Antitumor activity (tumor volume, FIG. 4) ([3]; NCI-H460 xenograft bearing nude mice, 37.5 mg/kg i.p.): Antitumor activity was observed; MBWC D 0-D 3 (mean body weight change) [3, 6]: -0.96 g; MBWC D 0-D 4 (mean body weight change) [3, 6]: -1.76 g; MBWC D 0-D 7 (mean body weight change) [3, 6]: -1.82 g; MBWC D 0-D 10 (mean body weight change) [3, 6]: -2.12 g; MBWC D 0-D 14 (mean body weight change) [3, 6]: -1.83 g; MBWC D 0-D 17 (mean body weight change) [3, 6]: -1.55 g; Tolerability of treatment ([3]; nude mice bearing NCI-H460 xenograft, 37.5 mg/kg i.p.): well tolerated
4 | CN(C)c1ccc(C#N)cc1/C=C(\C#N)c1c[nH]c2ccc(Br)cc12 [Example 39, (Z)-3-(2-(5-bromo-1H-indol-3-yl)-2-cyanovinyl)-4-(dimethylamino)benzonitrile] |  |  |  |  |  |  |  |  |  | 200 nM | 600 nM |  | 0.3 µM | 0.2 µM |  | IC50 (A549): 0.5 µM; IC50 (HT-29): 0.3 µM
5 | COc1ccc(C#N)cc1/C=C(\C#N)c1cn(C(=O)CN(C)C)c2ccc(Br)cc12 [Example 63] |  |  |  |  |  |  |  |  |  |  |  |  |  |  |  | IC50 ([2]; Table 6 (prodrugs, formula II)): 10600 nM; IC50 (K562 cells; Table 6 (prodrugs, formula II), K562 cells): 40 nM; Remaining compound 63 (%) (mean ± SEM, n = 2) ([4]; incubation time 0 min): 100.0 ± 0.0%; Remaining compound 63 (%) (mean ± SEM, n = 2) ([4]; incubation time 60 min): 9.0 ± 0.8%; Remaining compound 63 (%) (mean ± SEM, n = 2) ([4]; incubation time 120 min): 10.7 ± 8.7%; Remaining compound 63 (%) (mean ± SEM, n = 2) ([4]; incubation time 240 min): 4.9 ± 0.5%; half-life at 2 μM ([4]; mouse, plasma): ~33 min; Remaining compound 63 (%) (mean ± SEM, n = 2) ([5]; incubation time 0 min): 100.0 ± 0.0%; Remaining compound 63 (%) (mean ± SEM, n = 2) ([5]; incubation time 60 min): 49.2 ± 5.1%; Remaining compound 63 (%) (mean ± SEM, n = 2) ([5]; incubation time 120 min): 27.2 ± 5.4%; Remaining compound 63 (%) (mean ± SEM, n = 2) ([5]; incubation time 240 min): 21.2 ± 11.2%; half-life at 2 μM ([5]; human, plasma): ~60 min
